The values below come from US6727244B2, “Mammalian metabolites of a tachykinin receptor antagonist” (Merck & Co., Inc., priority 2000, dated 2004).

Data set [1] in a line: oxidative metabolism in liver microsomes from rats. Format: in vitro ADME. As to conditions: rat liver microsomes, 15 min incubation. On the procedure: All liver microsomal and cytosolic fractions were prepared using the following procedure. Thawed livers were homogenized with 2 volumes of 50 mM Tris-buffer (pH 7.5) containing 1.15% KCl. For microsomal and cytosolic preparations, the homogenate was centrifuged for 20 min at 9,000×g and the resulting supernatant was centrifuged for 60 min at 105,000×g. The resulting cytosolic fractions were re-centrifuged at 105,000×g for 60 min. Fractions of cytosol were aliquoted into small tubes and stored at −70° C. Subsequently, the microsomal pellets were washed with 10 mM EDTA containing 1.15% KCl and were centrifuged at 105,000×g for 60 min. Washed microsomes were resuspended in 10 mM potassium phosphate buffer (pH 7.4) containing 250 mM sucrose, aliquoted into small tubes, and stored at −70° C. Protein concentrations were determined by a modified Lowry assay (Smith et al., 1985). The specific cytochrome P450 content in each microsomal preparation was measured as described by Omura and Sato, J. Biol. Chem. 239, 2370-2378 (1964). […]
Method A was conducted on a Shimadzu HPLC system (Shimadzu Scientific Instruments Inc., Columbia Md.). The parent compounds and their metabolites were monitored directly using a radiometric detector (INUS Systems Inc. Tampa, Fla.) and Ultima-Flow M (Packard Instrument Co., Meridan Conn.) as scintillant at a flow rate of 3 mL/min. […]

The target in data set [2] is T1, recombinant human CYP isozymes (Homo sapiens, UniProt P08684).
T1 construct: host or cells: Baculovirus-infected sf21 insect cells (microsomes)
T1 sequence (P08684 2-503 limits assumed): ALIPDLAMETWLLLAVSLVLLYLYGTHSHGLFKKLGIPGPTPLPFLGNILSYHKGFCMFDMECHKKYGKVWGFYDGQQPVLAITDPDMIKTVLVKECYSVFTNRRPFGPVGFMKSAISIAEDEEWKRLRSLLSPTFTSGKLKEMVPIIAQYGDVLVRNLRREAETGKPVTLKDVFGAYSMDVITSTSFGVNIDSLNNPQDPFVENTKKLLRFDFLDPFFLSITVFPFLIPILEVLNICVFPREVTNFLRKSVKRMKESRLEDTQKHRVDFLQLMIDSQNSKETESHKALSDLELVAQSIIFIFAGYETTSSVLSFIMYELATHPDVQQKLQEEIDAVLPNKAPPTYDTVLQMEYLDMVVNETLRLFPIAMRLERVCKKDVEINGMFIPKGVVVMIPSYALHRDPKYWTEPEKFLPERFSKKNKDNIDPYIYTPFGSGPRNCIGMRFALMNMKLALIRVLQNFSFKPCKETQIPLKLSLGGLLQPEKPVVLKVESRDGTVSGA
As to the kind of experiment: metabolism by microsomes containing recombinant human CYP isozymes. The data set is classed as in vitro ADME. The settings on record: parent to M-1 (N-dealkylation); M-1 to M-2 (oxidation); M-3 to M-4 (hydroxylation); M-2 to M-5 (conversion). On the procedure: Hepatocytes were harvested from male Sprague-Dawley rat livers or human livers and cultured on a matrigel support and treated with 0.1 μM dexamethasone or 50 μM rifampicin, respectively, for 48 hr prior to the addition of the test compounds. A 2.5 mM stock solution of [^14C]2-(R)-(1-(R)-(3,5-bis(trifluoromethyl)-phenyl)ethoxy)-3-(S)-(4-fluoro)phenyl-4-(3-(5-oxo-1H,4H-1,2,4-triazolo)methylmorpholine, [^14C]M-1 or [^14C]M-2 in DMSO was added to the plates such that the final concentration of test compound was 25 μM and DMSO was 1% (v/v). The cultures were incubated for 4, 6 or 24 hr for rat hepatocytes and 48 hr for human hepatocytes. The incubation mixtures (500 μL) contained 10 μM of test compound, 100 mM phosphate buffer pH 7.4, NADPH-regenerating system, microsomes containing expressed CYP isoforms (CYP1A2, CYP2A6, CYP2B6, CYP2C8, CYP2C9, CYP2C19, CYP2D6, CYP2E1 or CYP3A4) and cytochrome P-450 reductase. The reactions were initiated by adding NADP and proceeded at 37° C. for 15-45 min. Acetonitrile extracts from microsomal and hepatocyte incubates were dissolved in 50% aqueous methanol and fractionated by HPLC. The separation was accomplished on a Zorbax RX C8 analytical column (5 μm, 4.6×250 mm). The mobile phase consisted of solvent A (10 mM ammonium acetate in water) and solvent B (7.3 mM ammonium acetate in 92.7% acetonitrile and 7.3% methanol. The column was eluted by a linear gradient from 35 to 80% B over 40 min at a flow rate of 1 mL/min. Fractions of major metabolites were subjected to LC-MS/MS analysis. Further purification was done using isocratic conditions prior to NMR analysis.
The incubation mixtures (500 μL) contained 10 or 25 μM of test compounds, 100 mM phosphate buffer pH 7.4, NADPH-regenerating system (5 mM glucose-6-phosphate, 1 mM NADP and 0.7 I.U/mL glucose 6-phosphate dehydrogenase), 0.5 to 2 mg/mL liver microsomal protein prepared from rats and humans or microsomes from Baculovirus-infected sf21 cells containing 20 to 200 pmol expressed CYP isoforms (CYP1A2, CYP2A6, CYP2B6, CYP2C8, CYP2C9, CYP2C19, CYP2D6, CYP2E1 or CYP3A4) and cytochrome P450 reductase. Stock solutions of the substrates in methanol were made such that final concentration of methanol in the reaction mixture was 3%. The reactions were initiated by adding 50 μL of 10 mM NADP and proceeded at 37° C. for 15-45 min. After incubation, the reactions were terminated by the addition of four volumes of acetonitrile. The suspensions were mixed vigorously and centrifuged at 3000×g for 5 min. The supernatants were dried and redissolved in 50% methanol for HPLC analysis using method A described below.

On to `C[C@@H](O[C@H]1OCCN[C@H]1c1ccc(F)cc1)c1cc(C(F)(F)F)cc(C(F)(F)F)c1` [Metabolite M-1, (2R,3S)-2-[(1R)-1-[3,5-bis(trifluoromethyl)phenyl]ethoxy]-3-(4-fluorophenyl)morpholine], for which the “parent compound remained after incubation” value in data set [1] is recorded as about 50%. The “CYP isozyme primarily responsible for the metabolic step” value in data set [2] is “CYP3A4”.
